Test results published in patent US4374765A, “Mammalian collagenase inhibitors” (American Home Products Corporation, priority 1981, dated 1983).
Residues, ends and D or L forms follow the SMILES beside them.

Tested on: collagenase
Test: collagenase inhibition, acetyl 14C collagen hydrolysis (procedure of Sellers et al.)
Assay type: biochemical
Details: 2mM inhibitor, 35° C., 5 to 18 hours, Tris-CaCl2 pH 7.4, vs control devoid of inhibitor
Procedure: The inhibitory effect of the compounds of this invention toward collagenase was determined following the procedure of Sellers et al., Biochem. J. 167 353-360 (1977) whereby the 2mM of the inhibitor being tested is incubated at 35° C. for from 5 to 18 hours (depending upon the potency of the collagenase) with collagen and collagenase (buffered with Tris®--CaCl2; pH 7.4). The collagen is acetyl ^14 C collagen. The samples are centrifuged and an aliquot removed for assay on a scintillation counter. Because native collagen forms insoluble fibrils under the test conditions, the supernatant liquid contains radioactivity as a measure of hydrolysis. The collagenase activity in the presence of 2mM inhibitor is compared to activity in a control devoid of hinibitor and the results reported as percent inhibition of collagenase activity. Each of the compounds of this invention have been established as active collagenase inhibitors by the test procedure.

Structure (SMILES): CC(=O)NCC(=O)N[C@@H](CS)C(=O)NCC(=O)N[C@@H](CCC(=O)O)C(=O)N[C@@H](CCC(=O)O)C(N)=O [CH3 CO-Gly-L-Cys-Gly-L-Glu-L-Glu-NH2] (Ac-GCGEE-NH2)
- Percent collagenase inhibition: 80%
